From publication PMC6920806, “Synthesis of β-D-galactopyranoside-Presenting Glycoclusters, Investigation of Their Interactions with Pseudomonas aeruginosa Lectin A (PA-IL) and Evaluation of Their Anti-Adhesion Potential” (Biomolecules, 2019)
Converted amounts (≈) assume the structure as drawn. Read-outs that look alike come from different tables or passages of the source.

Assays:
lectin PA-IL [1] = biological target: T1, lectin PA-IL (Pseudomonas aeruginosa, UniProt Q05097); test: Hemagglutination inhibition assay (HIA) with microscope detection; type: biochemical; details: for Potency (MIC of standard/MIC of inhibitor) / β (Potency/Valency): HIA, standard D-galactose; for MIC (minimal inhibitory concentration): inhibition of hemagglutination caused by PA-IL (0.125 mg mL−1), papain-treated red blood cells B+
T1 construct: made in house; host or cells: Escherichia coli BL21(DE3)
Method: PA-IL was dissolved in the buffer with calcium ions suitable for the activity of the lectin (20 mM Tris/HCl, 150 mM NaCl, 5 mM CaCl2, pH = 7.5) to the concentration 0.25 mg mL^−1. Lectin was mixed with carbohydrate inhibitors serially diluted in the buffer in a 5 µL:5 µL ratio. Therefore, the final (working) concentration of the lectin was 0.125 mg mL^−1. A total of 10 µL of 20% papain-treated, azid-stabilized red blood cells B^+ in the buffer was then added, and the mixture was thoroughly mixed and incubated for 5 min at room temperature. After incubation, the mixture was again mixed, transferred to a microscope slide, and examined. The examination was conducted using the Levenhuk D2L NG Digital Microscope (Levenhuk, Tampa, FL, USA). Images were obtained with a Levenhuk D2L digital camera (Levenhuk, Tampa, FL, USA) using the software ToupView for Windows (Version 3.7, Levenhuk, Tampa, FL, USA). The positive (experiment without inhibitor) and negative control (experiment without lectin) were prepared and processed in the same way using the appropriate volume of dissolving buffer instead of the omitted components. The minimal inhibitory concentration (MIC) of the inhibitor able to inhibit hemagglutination was determined and compared with the standard (D-galactose) and the potency of the inhibitor was calculated (MIC of the standard/MIC of the inhibitor).

lectin PA-IL [2] = biological target: T1, lectin PA-IL; test: SPR inhibition of PA-IL binding to immobilized D-galactosides; details: for Potency (IC50 of standard/IC50 of inhibitor) / β (Potency/Valency): standard D-galactose
Method: Surface plasmon resonance (SPR) experiments were performed on a BIAcore T200 instrument (GE Healthcare, Chicago, IL, USA) at 25 °C, using HBST running buffer (10 mM HEPES, 150 mM NaCl, 0.5 mM CaCl2, 0.05% Tween 20, pH = 7). A CM5 sensor chip (GE Healthcare, Chicago, IL, USA) covered with a carboxymethylated dextran matrix was used for ligand immobilization. The sensor chip surface was activated with N-ethyl-N-(3-dimethylaminopropyl)carbodiimide/N-hydroxysuccinimide solution and then coated with streptavidin (Sigma-Aldrich, St. Louis, MO, USA) in 10 mM acetate pH = 5.0 according to the manufacturer’s standard protocol to a final response of 7000 RU. Unreacted groups were blocked with 1 M ethanolamine-HCl, pH = 8.5. 0.5 mM biotinylated carbohydrate (1:1 mixture of biotin-α-D-galactoside and biotin-β-D-galactoside for measuring channel and α-L-fucoside for blank channel, all Lectinity, Moskow, Russia) was injected into a particular channel at a flow rate of 5 μL min^−1.
In the experimental setup, SPR inhibition measurements were carried out simultaneously on both measuring and blank channels at a flow rate of 5 µL min^−1. […] The response of the blank channel was subtracted from the response of lectin bound to the galactose-modified surface at equilibrium and plotted against the concentration of inhibitor in order to determine IC50 (concentration of inhibitor resulting in 50% inhibition of binding). As IC50 is not a constant and depends on the experimental set-up, a parameter called potency was used for characterization. The potency of a tested inhibitor is the ratio of IC50 of a chosen standard inhibitor (in this case, D-galactose) and the inhibitor in question. Pure lectin PA-IL was used as a control (0% inhibition).

lectin PA-IL [3] = biological target: T1, lectin PA-IL; test: Isothermal titration microcalorimetry (ITC); type: binding; details: for ΔH / Ka / −T ΔS / ΔG / n (stoichiometry): ITC, 25 °C; for Ka: association constant; for −T ΔS: calculated from ΔG = ΔH − TΔS; for ΔG: calculated from −RT ln Ka; for n (stoichiometry): single site-binding model
Method: All the experiments were performed on MicroCal iTC200 (Malvern Instruments, Malvern, UK) at 25 °C. The freeze-dried lectin PA-IL was dissolved in 0.1 M Tris/HCl, 500 μM CaCl2, pH = 7.5, and equilibrated at room temperature for 1 h before ITC measurements. Multivalent galactosylated compounds 4, 7, 10 and 13 were diluted in the same buffer and used in 0.25–0.5 mM concentrations. Aliquots of 2 µL of the compounds were added automatically to the 0.078 mM or 0.088 mM PA-IL in the calorimeter cell. Blank experiments (injections of compounds to the buffer) were performed and heat responses were subtracted. Integrated heat effects were analyzed by global fitting of data obtained from three independent titrations for each tested compound by non-linear regression using a single site-binding model (Microcal Origin 7, Malvern Instruments, Malvern, UK). Fitted data yielded the association constant (Ka) and the enthalpy of binding (ΔH). Other thermodynamic parameters, i.e., changes in free energy (ΔG) and entropy (ΔS), were calculated from the following equation: ΔG = ΔH − TΔS = −RT ln Ka, where T is the absolute temperature and R = 8.314 J mol^−1 K^−1. The monosaccharide D-galactose was used as a control; 4 mM D-galactose was added to the 0.147 mM PA-IL in the calorimeter cell. Two titration experiments were performed and the heat responses were processed and evaluated as mentioned above.

[4] = read-out: IC50 (concentration of inhibitor resulting in 50% inhibition of binding), SPR, PA-IL 45 µM, galactoside-modified chip, 25 °C

T1 sequence (Q05097 2-122): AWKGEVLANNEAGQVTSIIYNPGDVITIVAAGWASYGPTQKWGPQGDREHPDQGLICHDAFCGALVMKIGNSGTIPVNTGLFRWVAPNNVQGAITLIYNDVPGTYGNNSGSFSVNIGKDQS

Structure (SMILES) | Potency (MIC of standard/MIC of inhibitor) (lectin PA-IL [1]) | β (Potency/Valency) (lectin PA-IL [1]) | MIC (minimal inhibitory concentration) (lectin PA-IL [1]) [µM] | Potency (IC50 of standard/IC50 of inhibitor) (lectin PA-IL [2]; SPR) | β (Potency/Valency) (lectin PA-IL [2]; SPR) | IC50 (lectin PA-IL [2]; [4]) [µM] | ΔH (lectin PA-IL [3]) [kcal/mol] | Ka (lectin PA-IL [3]) | −T ΔS (lectin PA-IL [3]) [kcal/mol] | ΔG (lectin PA-IL [3]) [kcal/mol] | n (stoichiometry) (lectin PA-IL [3]) | IC50 (lectin PA-IL [2]) [µM] | Kd (lectin PA-IL [3]) [µM]
OC[C@H]1O[C@@H](OCc2cn(CCOCCOCCOCCn3cc(COCC(COCc4cn(CCOCCOCCOCCn5cc(CO[C@@H]6O[C@H](CO)[C@H](O)[C@H](O)[C@H]6O)nn5)nn4)(COCc4cn(CCOCCOCCOCCn5cc(CO[C@@H]6O[C@H](CO)[C@H](O)[C@H](O)[C@H]6O)nn5)nn4)COCc4cn(CCOCCOCCOCCn5cc(CO[C@@H]6O[C@H](CO)[C@H](O)[C@H](O)[C@H]6O)nn5)nn4)nn3)nn2)[C@H](O)[C@@H](O)[C@H]1O [Compound 7] | 256 | 64 | 24.41 (≈ 52.2 µg/mL) | 25.6 | 6.4 | 7.3 | -26.29 ± 0.196 | 281 ± 23.5 10^4 M^−1 | 17.4 ± 1.59 | -8.8 ± 0.739 | 0.32 ± 0.01 |  | 
OC[C@H]1O[C@@H](OCc2cn(CCn3cc(COCC(COCc4cn(CCn5cc(CO[C@@H]6O[C@H](CO)[C@H](O)[C@H](O)[C@H]6O)nn5)nn4)(COCc4cn(CCn5cc(CO[C@@H]6O[C@H](CO)[C@H](O)[C@H](O)[C@H]6O)nn5)nn4)COCc4cn(CCn5cc(CO[C@@H]6O[C@H](CO)[C@H](O)[C@H](O)[C@H]6O)nn5)nn4)nn3)nn2)[C@H](O)[C@@H](O)[C@H]1O [Compound 13] | 128 | 32 | 48.83 (≈ 78.6 µg/mL) |  |  | 4.3 | -32.03 ± 0.347 | 470 ± 54.5 10^4 M^−1 | 22.9 ± 2.904 | -9.11 ± 1.06 | 0.21 ± 0.01 |  | 
COC(=O)c1cc(OCc2cn(CCOCCOCCOCCn3cc(CO[C@@H]4O[C@H](CO)[C@H](O)[C@H](O)[C@H]4O)nn3)nn2)c(OCc2cn(CCOCCOCCOCCn3cc(CO[C@@H]4O[C@H](CO)[C@H](O)[C@H](O)[C@H]4O)nn3)nn2)c(OCc2cn(CCOCCOCCOCCn3cc(CO[C@@H]4O[C@H](CO)[C@H](O)[C@H](O)[C@H]4O)nn3)nn2)c1 [Compound 4] | 128 | 42.7 | 48.83 (≈ 82.3 µg/mL) | 27.5 | 9.2 | 6.8 | -19.3 ± 0.241 | 128 ± 15.1 10^4 M^−1 | 11 ± 1.43 | -8.32 ± 0.982 | 0.51 ± 0.01 |  | 
COC(=O)c1cc(OCc2cn(CCn3cc(CO[C@@H]4O[C@H](CO)[C@H](O)[C@H](O)[C@H]4O)nn3)nn2)c(OCc2cn(CCn3cc(CO[C@@H]4O[C@H](CO)[C@H](O)[C@H](O)[C@H]4O)nn3)nn2)c(OCc2cn(CCn3cc(CO[C@@H]4O[C@H](CO)[C@H](O)[C@H](O)[C@H]4O)nn3)nn2)c1 [Compound 10] | 64 | 21.3 | 97.66 (≈ 126 µg/mL) | 25.3 | 8.4 |  | -16.3 ± 0.179 |  | 7.98 ± 0.925 | -8.29 ± 0.87 | 0.53 ± 0.01 | 7.4 | 0.82
